These results are taken from ChEMBL document CHEMBL4483862, “Open-source discovery of chemical leads for next-generation chemoprotective antimalarials” (2018).

The subject of the assay is Plasmodium berghei. Nature of the assay: Luciferase/luciferin-expressing antifolate-resistant parasites were used to infect a culture of HepG2 cells that were pre-incubated with compounds. Infected hepatocytes emit light due to the luciferase reaction. Assay results are presented as the percent inhibition of light emission compared to control. […]. The class given is functional. The settings on record: sporozoite; for IC90: read-out: LUCIFERASE INFECTION ASSAY - IC90.

Where [1] appears, read: read-out: LUCIFERASE INFECTION ASSAY - IC50.

Each structure is given as a SMILES string.

Broadly, the IC50 is the concentration needed to halve the response being measured. One may read the IC90 as the concentration needed for an effect of 90%. Take `O=C(Nc1nc2ccccc2[nH]1)c1ccoc1`: the IC90 was more than 10 µM. Where the note is “HEPG2TOX_HILL_SLOPE 2.41, HEPG2TOX_R_SQUARED 0.931, read-out: LUCIFERASE INFECTION ASSAY - IC50”, the half-maximal inhibitory concentration (IC50) is more than 10 µM.
Regarding `COc1ccccc1OCCNC(=O)c1cc(C2CC2)nc2c1cnn2C(C)C`, the IC90 is more than 10 µM. For the same molecule, the IC50 (FFLUC_HILL_SLOPE 16.8, FFLUC_R_SQUARED 0.0713, HEPG2TOX_HILL_SLOPE 2.22, HEPG2TOX_R_SQUARED 0.212, read-out: LUCIFERASE INFECTION ASSAY - IC50) was more than 10 µM.
For `CC(Sc1nnc(-c2ccc[nH]2)o1)C(=O)c1ccc(C(C)(C)C)cc1` (stereo not given), the 90% effect concentration (IC90) was more than 10 µM. Further, under “PBLUC_HILL_SLOPE 11.5, PBLUC_R_SQUARED 0.42, read-out: LUCIFERASE INFECTION ASSAY - IC50”, the half-inhibitory concentration (IC50) worked out at 8.92 µM.
On to `Cc1oc(-n2cccc2)c(C#N)c1C(=O)Nc1ccn(C)n1`, for which the concentration for an effect of 90% (IC90) was more than 10 µM. Under setting [1], the IC50 is more than 10 µM.
As for `Cc1ccc(-c2nnc(SCC(=O)N3N=C(c4ccc5ccccc5c4)CC3c3ccccc3)[nH]2)cc1` (stereo not given), the IC90 was more than 10 µM. Under setting [1], the concentration for half-maximal inhibition (IC50) was more than 10 µM.
Regarding `CC(C)(C)c1ccc(C(=O)Nc2nonc2-c2ccc(F)cc2)cc1`, the IC90 is more than 9.72 µM. Besides, the IC50 under setting [1] was more than 9.72 µM.
Turning to `CC1(C)CC(=O)C2Sc3ccccc3N=C2C1` (stereo not given), the IC90 is more than 13.5 µM. Further, the IC50 (PBLUC_HILL_SLOPE 1.5, PBLUC_R_SQUARED 0.224, read-out: LUCIFERASE INFECTION ASSAY - IC50) is 10.8 µM.
On to `COc1cc(C(=O)c2c(C)c(CCC#N)n3ccccc23)cc(OC)c1OC`, for which the IC90 was 6.92 µM. The half-maximal inhibitory concentration (IC50) under setting [1] worked out at 2 µM.
On to `CCn1c2ccccc2c2cc(/C=C(\C#N)c3nnc(N4CCOCC4)n3-c3ccccc3)ccc21`, for which the IC90 is more than 10 µM. Moreover, the IC50 under setting [1] is more than 10 µM.
Consider `O=C(C(/C=N/O)=N/Nc1ccc(C(F)(F)F)cc1)c1ccc(Br)cc1`, for which the IC90 worked out at 3.98 µM. For the same molecule, the half-maximal inhibitory concentration (IC50) (FFLUC_HILL_SLOPE 17.5, FFLUC_R_SQUARED 0.273, HEPG2TOX_HILL_SLOPE 2.17, HEPG2TOX_R_SQUARED 0.985, PBLUC_HILL_SLOPE 7.45, PBLUC_R_SQUARED 0.303, read-out: LUCIFERASE INFECTION ASSAY - IC50) was determined as 2.96 µM.
On to `CCCNC(=O)c1c(NC(=O)c2cccc(Cl)c2Cl)nc2ccc(C)cn12`, for which the IC90 is more than 8.14 µM. Also, the concentration for half-maximal inhibition (IC50) under setting [1] is more than 8.14 µM.
As for `CCCCCCn1c(SCc2cc(=O)oc3cc(C)ccc23)nnc1-c1c[nH]c2ccccc12`, the IC90 was more than 10 µM. Further, the concentration for half-maximal inhibition (IC50) (PBLUC_HILL_SLOPE 85.8, PBLUC_R_SQUARED 0.0287, read-out: LUCIFERASE INFECTION ASSAY - IC50) was 9.99 µM.
With `Cc1cc(/C=C2\SC(NC3CCCCC3)=NC2=O)c(C)n1-c1ccc(Cl)c(C(F)(F)F)c1`, the concentration for an effect of 90% (IC90) worked out at 9.71 µM. In addition, the IC50 (FFLUC_HILL_SLOPE 17.5, FFLUC_R_SQUARED 0.757, PBLUC_HILL_SLOPE 2.43, PBLUC_R_SQUARED 0.441, read-out: LUCIFERASE INFECTION ASSAY - IC50) stood at 3.93 µM.
Turning to `C=C(C)CNC(=S)N/N=C1\C(=O)Nc2ccc([N+](=O)[O-])cc21`, the concentration for an effect of 90% (IC90) is more than 10 µM. Further, the IC50 (FFLUC_HILL_SLOPE 2.67, FFLUC_R_SQUARED 0.288, PBLUC_HILL_SLOPE 15.8, PBLUC_R_SQUARED 0.124, read-out: LUCIFERASE INFECTION ASSAY - IC50) is 8.97 µM.
As to `O=C(COc1ccccc1SCc1ccc(Cl)cc1)NNC(=O)c1ccccc1Cl`, the 90% effect concentration (IC90) is more than 7.15 µM. Besides, under setting [1], the half-inhibitory concentration (IC50) was more than 7.15 µM.
Take `COc1ccccc1Nc1nc(-c2c(-c3ccc(Cl)cc3Cl)noc2C)cs1`: the 90% effect concentration (IC90) is 7.32 µM. Under setting [1], the IC50 came to 2.27 µM.
In the case of `O=c1c2ccccc2cnn1-c1nc2ccccc2s1`, the concentration for an effect of 90% (IC90) came to 1.01 µM. Under setting [1], the IC50 turned out to be 0.212 µM.
With `CCOC(=O)c1ccc(N2CCCCC2)c(NC(=O)c2sc3ccccc3c2Cl)c1`, the 90% effect concentration (IC90) is more than 7.45 µM. Besides, the IC50 (FFLUC_HILL_SLOPE 35, FFLUC_R_SQUARED 0.23, read-out: LUCIFERASE INFECTION ASSAY - IC50) was more than 7.45 µM.
In the case of `O=C1OC(C=NC23CC4CC(CC(C4)C2)C3)c2ccccc21` (stereo not given), the IC90 was more than 11.2 µM. Under “PBLUC_HILL_SLOPE 9.77, PBLUC_R_SQUARED 0.255, read-out: LUCIFERASE INFECTION ASSAY - IC50”, the IC50 is 9.81 µM.
For `Cc1[nH]c2ccccc2c1C(=O)NCC1(c2ccccc2)CCC1`, the 90% effect concentration (IC90) was more than 10 µM. Also, under “HEPG2TOX_HILL_SLOPE 3.6, HEPG2TOX_R_SQUARED 0.416, PBLUC_HILL_SLOPE 3.04, PBLUC_R_SQUARED 0.598, read-out: LUCIFERASE INFECTION ASSAY - IC50”, the IC50 came to 7.33 µM.
As for `COCCCNc1nnc(Cc2ccc(Cl)cc2)c(O)n1`, the concentration for an effect of 90% (IC90) was more than 10.7 µM. Besides, the IC50 (HEPG2TOX_HILL_SLOPE 2.55, HEPG2TOX_R_SQUARED 0.699, PBLUC_HILL_SLOPE 0.604, PBLUC_R_SQUARED 0.236, read-out: LUCIFERASE INFECTION ASSAY - IC50) amounted to 6.39 µM.
Regarding `Cc1ccc(-n2nc(C)c(/C=C3\SC(=S)N(c4ccc(C(=O)O)cc4)C3=O)c2Cl)c(C)c1`, the IC90 is more than 10 µM. In addition, under setting [1], the concentration for half-maximal inhibition (IC50) worked out at 9.42 µM.
`CC(=O)O/N=C1/CCn2c1c(C)c1ccccc12`: the IC90 was 5.74 µM. The IC50 (HEPG2TOX_HILL_SLOPE 1.28, HEPG2TOX_R_SQUARED 0.99, PBLUC_HILL_SLOPE 11.8, PBLUC_R_SQUARED 0.596, read-out: LUCIFERASE INFECTION ASSAY - IC50) stood at 4.77 µM.
As for `CN(C)c1cc[n+](CC(=O)Nc2ccc(OC(F)F)cc2)cc1`, the IC90 was more than 10 µM. Moreover, the IC50 (HEPG2TOX_HILL_SLOPE 2.17, HEPG2TOX_R_SQUARED 0.89, read-out: LUCIFERASE INFECTION ASSAY - IC50) is more than 10 µM.
For `N#CCC(=O)NN1Cc2ccccc2C1=N`, the IC90 was more than 10 µM. For the same molecule, the half-inhibitory concentration (IC50) under setting [1] was more than 10 µM.
Turning to `Cc1ccc(/C=C/C(=O)NC2=NCCS2)c(Br)c1`, the IC90 was more than 10 µM. Also, the IC50 (PBLUC_HILL_SLOPE 0.976, PBLUC_R_SQUARED 0.447, read-out: LUCIFERASE INFECTION ASSAY - IC50) turned out to be 3.48 µM.
Consider `COc1ccc(Cc2nccc3cc(OC)c(OC)cc23)cc1OC` [PAPAVERINE], for which the 90% effect concentration (IC90) was more than 8.78 µM. The IC50 under setting [1] was more than 8.78 µM.
On to `CCOc1ccccc1NC(=O)CN(C)S(=O)(=O)c1ccc(OC)c(C)c1`, for which the IC90 is more than 8.41 µM. The IC50 under setting [1] is more than 8.41 µM.
Consider `CN1CCN(c2ccc(Cl)cc2NC(=O)Cn2c3ccccc3c(=O)c3ccccc32)CC1`, for which the concentration for an effect of 90% (IC90) is more than 10 µM. In addition, the IC50 (PBLUC_HILL_SLOPE 2.6, PBLUC_R_SQUARED 0.61, read-out: LUCIFERASE INFECTION ASSAY - IC50) was found to be 4.43 µM.
As to `Cc1cc(C(=O)CSc2nnc(C3CC3)[nH]2)c(C)n1-c1cccc(C(F)(F)F)c1`, the IC90 was more than 10 µM. For the setting “HEPG2TOX_HILL_SLOPE 7.7, HEPG2TOX_R_SQUARED 0.0445, PBLUC_HILL_SLOPE 1.16, PBLUC_R_SQUARED 0.631, read-out: LUCIFERASE INFECTION ASSAY - IC50”, the IC50 amounted to 3.51 µM.
As to `Oc1c(Br)cc(Cl)cc1/C=N/NC(=S)NC1CC1`, the IC90 was more than 9.47 µM. The half-maximal inhibitory concentration (IC50) (PBLUC_HILL_SLOPE 2.42, PBLUC_R_SQUARED 0.376, read-out: LUCIFERASE INFECTION ASSAY - IC50) came to 4.15 µM.
Take `C=CCn1c(-c2ccc(Cl)cc2Cl)csc1=Nc1ccc(NC(C)=O)cc1`: the concentration for an effect of 90% (IC90) was determined as 6.44 µM. The IC50 (PBLUC_HILL_SLOPE 2.47, PBLUC_R_SQUARED 0.472, read-out: LUCIFERASE INFECTION ASSAY - IC50) turned out to be 2.64 µM.
`CCC(C)NC(=O)c1c(NC(=O)c2ccc(F)c(Cl)c2)nc2ccc(C)cn12` (stereo not given): the concentration for an effect of 90% (IC90) is 5.96 µM. The concentration for half-maximal inhibition (IC50) (HEPG2TOX_HILL_SLOPE 2.61, HEPG2TOX_R_SQUARED 0.962, PBLUC_HILL_SLOPE 2.74, PBLUC_R_SQUARED 0.471, read-out: LUCIFERASE INFECTION ASSAY - IC50) turned out to be 2.67 µM.
`O=C(Nc1cccnc1-n1cccn1)c1csc(-c2ccc(Cl)cc2)n1`: the concentration for an effect of 90% (IC90) is more than 2 µM. Also, the half-maximal inhibitory concentration (IC50) under setting [1] was more than 2 µM.
In the case of `O=C(NCCC1=CCCCC1)Nc1ccc(OC(F)(F)F)cc1`, the IC90 was more than 10.1 µM. Where the note is “PBLUC_HILL_SLOPE 77.5, PBLUC_R_SQUARED 0.175, read-out: LUCIFERASE INFECTION ASSAY - IC50”, the 50% inhibitory concentration (IC50) was more than 10.1 µM.
In the case of `FC(F)(F)Oc1cccc(-c2nc3ccnc(NCc4ccccn4)c3[nH]2)c1`, the IC90 is more than 10 µM. In addition, the IC50 (HEPG2TOX_HILL_SLOPE 0.276, HEPG2TOX_R_SQUARED 0.811, PBLUC_HILL_SLOPE 0.809, PBLUC_R_SQUARED 0.487, read-out: LUCIFERASE INFECTION ASSAY - IC50) is 2.04 µM.
`CCOc1cc2ccccc2cc1C(=O)NNC(=O)c1ccccn1`: the concentration for an effect of 90% (IC90) stood at 1.23 µM. Moreover, the IC50 (HEPG2TOX_HILL_SLOPE 1.13, 0.817, HEPG2TOX_R_SQUARED 0.858, 0.909, PBLUC_HILL_SLOPE 4.86, PBLUC_R_SQUARED 0.852, read-out: LUCIFERASE INFECTION ASSAY - IC50) is 0.78 µM.
As for `Cc1nc(CSc2nc3c(c(-c4ccccc4)c2C#N)C(=O)CC(C)(C)C3)cs1`, the IC90 is more than 10 µM. In addition, the half-inhibitory concentration (IC50) (HEPG2TOX_HILL_SLOPE 0.218, HEPG2TOX_R_SQUARED 0.218, PBLUC_HILL_SLOPE 7.94, PBLUC_R_SQUARED 0.255, read-out: LUCIFERASE INFECTION ASSAY - IC50) is 9.59 µM.
As to `c1ccc2sc(-c3nc4ccccc4s3)nc2c1`, the IC90 is more than 10 µM. Moreover, the IC50 (PBLUC_HILL_SLOPE 0.811, PBLUC_R_SQUARED 0.754, read-out: LUCIFERASE INFECTION ASSAY - IC50) was found to be 1.16 µM.
On to `CC(C)(C)c1cccc(Nc2ncc(C(=O)c3ccccc3)[nH]2)c1`, for which the IC90 is more than 10.3 µM. In addition, the IC50 under setting [1] was determined as 8.64 µM.
